Measured values as given in patent US11938137B2, “Lipid prodrugs of mycophenolic acid and uses thereof” (PureTech LYT, Inc., priority 2017, dated 2024).

Columns and labels:
[1] = Lymphatic transport assay in mesenteric lymph-duct cannulated rats; assay type: in vivo, rat; settings: total MPA related compound, intraduodenal infusion, anesthetised mesenteric lymph-duct cannulated rats; class symbols
Protocol: In order to assess the lymphatic transport of disclosed lipid prodrugs in rats, the mesenteric lymph ducts of the rats used in this study were cannulated to allow continual collection of mesenteric lymph. Lipid formulations containing the compound of interest were then administered to the animals, lymph was collected, and drug concentrations in the lymph samples were quantified.
Lipid-based formulations of the compounds of the invention or control compounds were prepared as previously described (Trevaskis, N. L. et al., Pharmaceutical Research, 2005, 22(11), 1863-1870, WO 2016/023082, and WO 2017/041139, hereby incorporated by reference.
In brief, either 1 or 2 mg of test prodrug, 40 mg oleic acid and 25 mg Tween 80 were mixed in a glass vial and incubated at 37° C. for 12-18 h to equilibrate. An aqueous phase consisting of 5.6 ml phosphate buffered saline (PBS, pH 7.4) was subsequently added to the lipid phase (MPA was dissolved in PBS for the preparation of MPA containing formulations) and the formulation emulsified by ultrasonication with a Misonix XL 2020 ultrasonic processor (Misonix, Farmingdale, NY, USA) equipped with a 3.2-mm microprobe tip running at 30% of the maximal amplitude of 240 μm and a frequency of 20 kHz for 2 min at room temperature. Doses for administering to more than one animal can be prepared in one batch by suitably increasing the quantities given above. Drug/prodrug concentrations in all formulations were verified using HPLC-MS.
Male Sprague-Dawley (SD) rats were selected for the lymphatic transport studies. Rats (typically 240-320 g) were maintained on a standard diet and fasted overnight with free access to water prior to experiments.
Anesthetized rats were placed on a heated pad at 37° C. and cannulas inserted into the duodenum (for formulation administration and rehydration), mesenteric lymph duct (for lymph collection), and carotid artery (in cases where blood collection was conducted). Post-surgery, rats were re-hydrated for 0.5 h via intraduodenal infusion of normal saline at 2.8 mL/h. The lipid formulations were infused into the duodenum at 2.8 mL/h for 2 h after which, normal saline was infused at 2.8 mL/h for the remainder of the experiment. Lymph was continuously collected for up to 8 h into pre-weighed Eppendorf tubes containing 10 μL of 1,000 IU/mL heparin. The collection tubes were changed hourly and lymph flow was measured gravimetrically. Aliquots of hourly lymph samples were stored at −20° C. prior to assay.
Drug concentration in lymph is expressed as total drug and includes free drug and drug associated with different glycerides. Lymph samples are first treated with a lipase or other appropriate conditions to liberate free active agent prior to measurement of active agent levels in the lymph. Treatment with a lipase or other hydrolysis conditions liberates free active agent from any corresponding re-esterified glycerides. Porcine pancreatic lipase is appropriate for this purpose. Alternatively, hydrolysis with 0.5 M NaOH may be used. For MPA “phenol” prodrugs (i.e. prodrugs linked to the triglyceride at the aromatic —OH group of MPA), hydrolysis was performed with 0.5 M NaOH except for the lymph samples collected from 3 rats in the group of compound I-20 (MPA-O-C12α′βMe-TG), which were hydrolyzed by porcine pancreatic lipase.
Transport of compounds into lymph during each hourly collection period was calculated from the product of the volume of lymph collected and the measured concentrations in lymph. For fluorescently-labelled compounds such as a BDP-conjugate, the concentrations of total compound may be measured by fluorescence spectroscopy without hydrolysis.
The results of the lymphatic transport assays are summarized in Table 2, below, and FIGS. 1-19. Table 2 summarizes lymphatic transport of total MPA related compound (% of administered dose) following intraduodenal infusion to anaesthetised, mesenteric lymph-duct cannulated rats. […]

[2] = In vitro release of MPA from prodrugs in plasma supplemented with lipoprotein lipase (LPL); assay type: in vitro ADME, rat; settings: for Percentage MPA release at 60 min in LPL supplemented rat plasma: n = 3 unless specified otherwise; for monoglyceride (MG) peak: after 180 min, rat plasma supplemented with LPL
Protocol: The percentage of MPA released at 60 minutes in LPL-supplemented rat plasma was also determined for selected compounds. […] The designation “**” indicates a release % of >25% to 50%. The designation “***” indicates a release % of >50% to 75%. The designation “****” indicates a release % of >75%.
In order to probe the release of free drug from TG prodrugs in the systemic circulation, prodrugs were incubated with plasma (rat, mouse, dog, pig or human) supplemented with lipoprotein lipase (LPL, 200 IU/ml). LPL is a key enzyme required for the hydrolysis of lipoprotein associated TG in the systemic circulation and is therefore expected to be a key contributor to lipolysis of the re-esterified drug-TG construct in plasma, largely via liberation of fatty acids in the sn-1 and the sn-3 position of the TG-mimetic, prior to drug release from the 2′ position via esterase hydrolysis. LPL is […] is tethered to the luminal surface of vascular endothelial cells under physiological conditions. In the current in vitro studies, plasma was therefore supplemented with LPL to better reflect the in vivo situation. To start hydrolysis, 10 μl of LPL solution (10,000 IU/ml) was added to a mixture of 10 μl of prodrug solution (1 mg/ml dissolved in acetonitrile) and 500 μl of blank plasma. The mixture was incubated at 37° C. Samples (20 μl) of the incubation solution were taken at 0, 5, 15, 30, 60, 90, 120 and 180 minutes post-incubation and added to 180 μl of MeCN to stop lipolysis. The mixture was vortexed and centrifuged at 4500×g for 5 minutes to precipitate proteins prior to analysis. The supernatant was analyzed by HPLC-MS/MS for the potential products (MG form, acid form, and free drug) of prodrug hydrolysis.

Row | Cumulative lymphatic transport % dose (Mean ± SD, or Range if n = 2) [1] | Structure (SMILES) | Percentage MPA release at 60 min in LPL supplemented rat plasma [2] | monoglyceride (MG) peak [2]
1 | A (greater than 10% (>10%)) | CCCCCCCCCCCCCCCC(=O)OCC(COC(=O)CCCCCCCCCCCCCCC)OC(=O)CC(C)CCCCCCCC(C)C(=O)Oc1c(C/C=C(\C)CCC(=O)OC)c(OC)c(C)c2c1C(=O)OC2 (centres unmarked) [I-20] | *** (a release % of >50% to 75%) | almost completely disappeared
2 | A (greater than 10% (>10%)) | CCCCCCCCCCCCCCCC(=O)OCC(COC(=O)CCCCCCCCCCCCCCC)OC(=O)C(C)CCCCCCCC(=O)Oc1c(C/C=C(\C)CCC(=O)OC)c(OC)c(C)c2c1C(=O)OC2 (centres unmarked) [I-45] |  | 
3 | A (greater than 10% (>10%)) | CCCCCCCCCCCCCCCC(=O)OCC(COC(=O)CCCCCCCCCCCCCCC)OC(=O)CCCCCCCCCC(=O)Oc1c(C/C=C(\C)CCC(=O)OC)c(OC)c(C)c2c1C(=O)OC2 [I-48] |  | 
4 | A (greater than 10% (>10%)) | CCCCCCCCCCCCCCCC(=O)OCC(COC(=O)CCCCCCCCCCCCCCC)OC(=O)CC(C)CCCC(=O)Oc1c(C/C=C(\C)CCC(=O)OC)c(OC)c(C)c2c1C(=O)OC2 (centres unmarked) [I-53] |  | 
5 | A (greater than 10% (>10%)) | CCCCCCCCCCCCCCCC(=O)OCC(COC(=O)CCCCCCCCCCCCCCC)OC(=O)CC(C)CCCCCCCC(C)C(=O)OC(C)Oc1c(C/C=C(\C)CCC(=O)OC)c(OC)c(C)c2c1C(=O)OC2 (centres unmarked) [I-58, (E)-12-(1,3-bis(palmitoyloxy)propan-2-yl) 1-(1-((6-methoxy-5-(6-methoxy-3-methyl-6-oxohex-2-en-1-yl)-7-methyl-3-oxo-1,3-dihydroisobenzofuran-4-yl)oxy)ethyl) 2,10-dimethyldodecanedioate] |  | 
6 | A (greater than 10% (>10%)) | CCCCCCCCCCCCCCCC(=O)OCC(COC(=O)CCCCCCCCCCCCCCC)OC(=O)C(C)CCCCCCCCCC(=O)Oc1c(C/C=C(\C)CCC(=O)OC)c(OC)c(C)c2c1C(=O)OC2 (centres unmarked) [I-60] |  | 
7 | A (greater than 10% (>10%)) | CCCCCCCCCCCCCCCC(=O)OCC(COC(=O)CCCCCCCCCCCCCCC)OC(=O)C(C)CCCCCCC(C)C(=O)Oc1c(C/C=C(\C)CCC(=O)OC)c(OC)c(C)c2c1C(=O)OC2 (centres unmarked) [I-61] |  | 
8 | A (greater than 10% (>10%)) | CCCCCCCCCCCCCCCC(=O)OCC(COC(=O)CCCCCCCCCCCCCCC)OC(=O)CC(C)CCCCCCCC(C)C(=O)OCCCC(=O)Oc1c(C/C=C(\C)CCC(=O)OC)c(OC)c(C)c2c1C(=O)OC2 (centres unmarked) [I-62, (E)-12-(1,3-bis(palmitoyloxy)propan-2-yl) 1-(4-((6-methoxy-5-(6-methoxy-3-methyl-6-oxohex-2-en-1-yl)-7-methyl-3-oxo-1,3-dihydroisobenzofuran-4-yl)oxy)-4-oxobutyl) 2,10-dimethyldodecanedioate] |  | 

Continued, molecule first:

Row | Structure (SMILES) | Cumulative lymphatic transport % dose (Mean ± SD, or Range if n = 2) [1] | Percentage MPA release at 60 min in LPL supplemented rat plasma [2] | monoglyceride (MG) peak [2]
9 | CCCCCCCCCCCCCCCC(=O)OCC(COC(=O)CCCCCCCCCCCCCCC)OC(=O)CC(C)CCCCCCCC(C)C(=O)OCCCCC(=O)Oc1c(C/C=C(\C)CCC(=O)OC)c(OC)c(C)c2c1C(=O)OC2 (centres unmarked) [I-22, (E)-12-(1,3-Bis(palmitoyloxy)propan-2-yl) 1-(5-((6-methoxy-5-(6-methoxy-3-methyl-6-oxohex-2-en-1-yl)-7-methyl-3-oxo-1,3-dihydroisobenzofuran-4-yl)oxy)-5-oxopentyl) 2,10-dimethyldodecanedioate] | A (greater than 10% (>10%)) | *** (a release % of >50% to 75%) | almost completely disappeared
10 | CCCCCCCCCCCCCCCC(=O)OCC(COC(=O)CCCCCCCCCCCCCCC)OC(=O)CCCCCCCCCOC(=O)CC/C(C)=C/Cc1c(O)c2c(c(C)c1OC)COC2=O [I-46] | A (greater than 10% (>10%)) |  | 
11 | CCCCCCCCCCCCCCCC(=O)OCC(COC(=O)CCCCCCCCCCCCCCC)OC(=O)CCCCCCCCCCC(=O)Oc1cc(C)cc(C)c1C(C)(C)CC(=O)Oc1c(C/C=C(\C)CCC(=O)OC)c(OC)c(C)c2c1C(=O)OC2 [I-47] | B (between 1% and 10% (1%-10%)) |  | 
12 | CCCCCCCCCCCCCCCC(=O)OCC(COC(=O)CCCCCCCCCCCCCCC)OC(=O)CC(C)CCCCCCCOC(=O)CC/C(C)=C/Cc1c(O)c2c(c(C)c1OC)COC2=O (centres unmarked) [I-50, (E)-2-((10-((6-(4-hydroxy-6-methoxy-7-methyl-3-oxo-1,3-dihydroisobenzofuran-5-yl)-4-methylhex-4-enoyl)oxy)-3-methyldecanoyl)oxy)propane-1,3-diyl dipalmitate] | A (greater than 10% (>10%)) |  | 
13 | CCCCCCCCCCCCCCCC(=O)OCC(COC(=O)CCCCCCCCCCCCCCC)OC(=O)CC(C)CCCCCCCCCOC(=O)CC/C(C)=C/Cc1c(O)c2c(c(C)c1OC)COC2=O (centres unmarked) [I-51, (E)-2-((12-((6-(4-hydroxy-6-methoxy-7-methyl-3-oxo-1,3-dihydroisobenzofuran-5-yl)-4-methylhex-4-enoyl)oxy)-3-methyldodecanoyl)oxy)propane-1,3-diyl dipalmitate] | A (greater than 10% (>10%)) |  | 
14 | CCCCCCCCCCCCCCCC(=O)OCC(COC(=O)CCCCCCCCCCCCCCC)OC(=O)C(C)CCCCCCCCC(C)C(=O)Oc1cc(C)cc(C)c1C(C)(C)CC(=O)Oc1c(C/C=C(\C)CCC(=O)OC)c(OC)c(C)c2c1C(=O)OC2 (centres unmarked) [I-52] | B (between 1% and 10% (1%-10%)) |  | 
15 | CCCCCCCCCCCCCCCC(=O)OCC(COC(=O)CCCCCCCCCCCCCCC)OC(=O)CC(C)CCCCCCCC(C)C(=O)Oc1ccc(COc2c(C/C=C(\C)CCC(=O)OC)c(OC)c(C)c3c2C(=O)OC3)cc1 (centres unmarked) [I-54, (E)-12-(1,3-bis(palmitoyloxy)propan-2-yl) 1-(4-(((6-methoxy-5-(6-methoxy-3-methyl-6-oxohex-2-en-1-yl)-7-methyl-3-oxo-1,3-dihydroisobenzofuran-4-yl)oxy)methyl)phenyl) 2,10-dimethyldodecanedioate] | B (between 1% and 10% (1%-10%)) |  | 
16 | CCCCCCCCCCCCCCCC(=O)OCC(COC(=O)CCCCCCCCCCCCCCC)OC(=O)CCCCCCCCCCCCCC(=O)Oc1c(C/C=C(\C)CCC(=O)OC)c(OC)c(C)c2c1C(=O)OC2 [I-57, (E)-1-(1,3-bis(palmitoyloxy)propan-2-yl) 15-(6-methoxy-5-(6-methoxy-3-methyl-6-oxohex-2-en-1-yl)-7-methyl-3-oxo-1,3-dihydroisobenzofuran-4-yl) pentadecanedioate] | A (greater than 10% (>10%)) |  | 
